Laboratory results from US10471028B2, “Small molecule efflux pump inhibitors” (UNIVERSITY OF ROCHESTER, priority 2014, dated 2019).
Like-named read-outs stand apart in the source and are kept apart here.

What was measured:
[1] = tested on: A. baumannii strain 98-37-09; assay: Potentiation of ciprofloxacin toward serum grown A. baumannii; format: cell-based, Acinetobacter baumannii; settings: 100% human serum, 0.125 μg ml^−1 ciprofloxacin, 1× or 2× MEC, 48 hour, growth inhibition
Text: As a means to further prioritize non-toxic compounds of interest based on their therapeutic promise, it was considered that broad spectrum antimicrobial efflux pump inhibitors may be more clinically valuable than narrow-spectrum agents that only potentiate the activity of a limited number of antibiotics or that display activity toward a single bacterial species. […] To do so, 1×10^5 A. baumannii strain 98-37-09 were inoculated into individual wells of microtiter plates containing 100% human serum supplemented with 0.125 μg ml^−1 ciprofloxacin and 0, 1×, or 2× the compound's MEC, as defined by the lowest concentration needed to potentiated minocycline's antimicrobial effects (above). Plates were incubated for 48 hour at which point each compound's ability to potentiate ciprofloxacin was measured, as growth inhibition.

[2] = tested on: A. baumannii strain 98-37-09; assay: MEC determination: potentiation of minocycline toward serum grown A. baumannii; format: cell-based, Acinetobacter baumannii; settings: for Log-reduction Colony Forming Units (ml^−1): 1×MEC of compound plus minocycline in serum, versus minocycline alone, plating; for MEC: lowest concentration inhibiting growth in 100% human serum with 0.5 μg ml^−1 minocycline, 48 hr
Method: The TimTec ActiProbe-25K diversity-set and Natural Product compound libraries (29,900 compounds total; TimTec, Newark, Del.) were initially screened for putative efflux pump inhibitors by identifying compounds that potentiated the antimicrobial property of a sub-inhibitory concentration of minocycline toward A. baumannii grown in human serum. To do so, A. baumannii strain 98-37-09 was grown for 16 hours in LB medium at 37° C. on a rotary shaker at 225 rpm. Approximately 1×10^5 CFU were then transferred to individual wells of a 96-well round-bottom plate (Corning Costar, Tewksbury, Mass.) containing 100 μL of human serum supplemented with of minocycline (0.5 μg mL^−1; 0.5× minimum inhibitory concentration in serum) and individual members of the Timtec ActiProbe or Natural product library (50 μM). Plates were then incubated at 37° C. for 48 hours. Growth was measured as a function of turbidity. Putative efflux pump inhibitors were identified as compounds that inhibited A. baumannii growth in human serum containing minocycline and were subsequently retested in triplicate, as indicated above. Untreated A. baumannii grown in serum supplemented with minocycline+/−PAβN served as positive and negative controls, respectively. […] Repeat testing in which well constituents were serial diluted and plated on LB agar plates validated that 85 compounds did indeed limit A. baumannii growth in serum supplemented with minocycline, reducing the number of viable colony forming units between 2-6 log cfu in comparison to minocycline alone treated cells.
The MEC was defined as the lowest concentration of test compound required to inhibit the growth of A. baumannii in serum in the presence of 0.5 μg ml^−1 minocycline. Plating confirmed that addition of 1×MEC of each compound elicited ≥1.9-log reduction in A. baumannii cells grown in serum supplemented with minocycline alone (see Table 1).

[3] = tested on: A. baumannii strain 98-37-09; assay: Cellular accumulation of minocycline (HPLC, triple-quadrupole MS); format: cell-based, Acinetobacter baumannii; settings: for Minocylcine Per Cell (femtomoles cell^−1): human serum with 0.5 μg mL^−1 minocycline plus test compound (0.5×MEC, 1×MEC), 48 hours
Method: High pressure liquid chromatography and triple-quadrupole mass spectrometry were used to measure the A. baumannii intracellular levels of minocycline during growth in human serum in the absence and presence of each putative efflux pump inhibitor. […] Cultures were incubated for 48 hours with shaking, at which point an aliquot was removed, serially diluted, and plated to determine the number of viable CFU per mixture. The remainder of the cells were pelleted by centrifugation at 900×g at 4° C., washed twice in PBS, mechanically lysed with a FastPrep cell disrupter (MP Biomedicals, Santa Ana, Calif.) for 20 seconds at 5 m s^−1 and the cellular debris was pelleted via centrifugation at 900×g and 4° C. The amount of minocycline present within the supernatant of ruptured cells was measured. Briefly, doxycycline (0.5 μg mL^−1) was first added to each supernatant to serve as an internal control to account for sample-to-sample preparation variability. The supernatant was then combined with acetonitrile (ACN) at a 1:10 ratio and centrifuged at 16,000×g, at 4° C., to collect minocycline and doxycycline. […] residual liquid was evaporated in a speed vacuum for 2 hours at 8,000×g. To quantify the amount of antibiotics retained, sample materials were suspended in 50% acetonitrile, filtered through a 0.2 μm low protein binding hydrophilic membrane (Millipore, Billerica, Mass.) then separated on Shimadzu high performance liquid chromatography instrument (Fisher Scientific) using a BetaBasic C18 reverse phase column (Thermo Scientific). Separation was carried out with two mobile phase solutions consisting of solution (A) water with 0.1% formic acid and solution (B) 100% ACN. The gradient profile of the chromatography runs was as follows: from 0 to 0.1 min 8% solution B, ramp step wise (37% to 60% solution B) from 0.1 to 6.5 min then holding for one minute before ramping down from 60% to 10% from 7.5 to 8 min. This was followed a hold at 10% solution B for one minute. […] The column was equilibrated in 8% solution B at 40° C. and the flow rate was set to 0.2 mL min^−1. Mass spectrometry analysis of fractions was carried out using a Thermo TSQ Quantum Ultra triple quadrupole mass spectrometer (Fisher Scientific). Data were analyzed using Xcalibur software (Thermo Scientific); the following parameters were used to detect minocycline and the internal control doxycycline: 458.208 m/z→282.971 m/z (collision energy=43, tube lens=119) for minocycline and 445.144 m/z→266.900 m/z (collision energy=39, tube lens=127) for doxycycline. Analysis of the raw data was conducted by using the area under the curve calculations with the Genesis algorithm to determine the concentration in each sample. The difference between the peak intensity and the y intercept of pre-established minocycline and doxycycline standard curves was divided by the slope of the standard curve to quantify the amount of minocycline within each sample. The total concentration of minocycline within each cell was calculated by normalizing to the number of cells within each corresponding culture.

human HepG2 cells = assay: MTT cell viability (cytotoxicity) assay
Method: To distinguish putatively non-toxic from human cytotoxic compounds, conventional 3-(4,5-dimethylthiazol-2yl)-2,5-diphenyltetrazolium bromide (MTT) cell viability assays (American Type Culture Collection, Manassas, Va.) were performed for each compound of interest at 1× and 4× their MEC. Briefly, human HepG2 cells were grown to approximately 1×10^6 cells per well in Dulbecco's Modified Eagle Media supplemented with 10% fetal bovine serum (Invitrogen, Carlsbad, Calif.) then treated with 1× or 4× the MEC of the indicated […] Cell viability was measured following the addition of the tetrazolium salt (MTT) as per the manufacturer's recommendations; cells challenged with 50 ug ml^−1 Mitomycin C (Sigma Aldrich) and mock-treated cells served as positive and negative controls, respectively.

## Cc1cc2c(c(=O)o1)C(c1ccc(F)cc1)C(C#N)=C(N)O2 (stereo not drawn) [ST007013]
[1]
  Potentiate Ciprofloxacin A. baumannii: No
[2]
  Log-reduction Colony Forming Units (ml^−1): 1.95 log
  MEC: 4 µg/mL
[3]
  Minocylcine Per Cell (femtomoles cell^−1): 5E−04 femtomoles cell^−1
Human HepG2 cells
  % Viability: 80.9%

## c1ccc(CN2CCN(Cc3ccccc3)C2c2cccs2)cc1 [ST007852]
[2]
  Log-reduction Colony Forming Units (ml^−1): 4.21 log
  MEC: 4 µg/mL
[3]
  Minocylcine Per Cell (femtomoles cell^−1): 5.9E−05 femtomoles cell^−1
Human HepG2 cells
  % Viability: 65.77%

## CC1CCN(Cc2cc(Cl)c3cccnc3c2O)CC1 [ST007924]
[2]
  Log-reduction Colony Forming Units (ml^−1): 2.42 log
  MEC: 4 µg/mL
[3]
  Minocylcine Per Cell (femtomoles cell^−1): 5.12E−05 femtomoles cell^−1
Human HepG2 cells
  % Viability: 67.45%

## CCOc1ccc(/C=N/c2ccc(S(N)(=O)=O)cc2)cc1 [ST009694]
[2]
  Log-reduction Colony Forming Units (ml^−1): 6.24 log
  MEC: 4 µg/mL
[3]
  Minocylcine Per Cell (femtomoles cell^−1): 6.8E−07 femtomoles cell^−1
Human HepG2 cells
  % Viability: 74.6%

## NS(=O)(=O)c1ccc(/N=C/c2ccc(F)cc2)cc1 [ST009698]
[2]
  Log-reduction Colony Forming Units (ml^−1): 6.45 log
  MEC: 64 µg/mL
[3]
  Minocylcine Per Cell (femtomoles cell^−1): 1.52E−05 femtomoles cell^−1
Human HepG2 cells
  % Viability: 73.56%

## NS(=O)(=O)c1ccc(/N=C/c2ccc(Br)cc2)cc1 [ST009699]
[2]
  Log-reduction Colony Forming Units (ml^−1): 6.84 log
  MEC: 2 µg/mL
[3]
  Minocylcine Per Cell (femtomoles cell^−1): 1.15E−04 femtomoles cell^−1
Human HepG2 cells
  % Viability: 70.45%

## CCOc1ccccc1C(=O)Nc1sc2c(c1C(=O)OC(C)C)CCCC2 [ST009896]
[2]
  Log-reduction Colony Forming Units (ml^−1): 2.45 log
  MEC: 2 µg/mL
[3]
  Minocylcine Per Cell (femtomoles cell^−1): 3.99E−05 femtomoles cell^−1
Human HepG2 cells
  % Viability: 73.54%

## Cc1ccc(C=Nc2cc([N+](=O)[O-])ccc2O)cc1 [ST010277]
[1]
  Potentiate Ciprofloxacin A. baumannii: No
[2]
  Log-reduction Colony Forming Units (ml^−1): 7.33 log
  MEC: 32 µg/mL
[3]
  Minocylcine Per Cell (femtomoles cell^−1): 1.15E−05 femtomoles cell^−1
Human HepG2 cells
  % Viability: 82.4%

## O=C(c1ccc([N+](=O)[O-])cc1Cl)N1CCCc2ccccc21 [ST011123]
[2]
  Log-reduction Colony Forming Units (ml^−1): 2.83 log
  MEC: 32 µg/mL
[3]
  Minocylcine Per Cell (femtomoles cell^−1): 1.19E−05 femtomoles cell^−1
Human HepG2 cells
  % Viability: 67.89%

## O=[N+]([O-])c1cc2c(cc1/C=N/c1ccc(S(=O)(=O)Nc3nccs3)cc1)OCO2 [ST012902]
[2]
  Log-reduction Colony Forming Units (ml^−1): 3.71 log
  MEC: 2 µg/mL
[3]
  Minocylcine Per Cell (femtomoles cell^−1): 1.1E−05 femtomoles cell^−1
Human HepG2 cells
  % Viability: 55.1%

## O=[N+]([O-])c1cccc(/C=N/c2ccc(S(=O)(=O)Nc3nccs3)cc2)c1 [ST012961]
[2]
  Log-reduction Colony Forming Units (ml^−1): 6.23 log
  MEC: 32 µg/mL
[3]
  Minocylcine Per Cell (femtomoles cell^−1): 1.13E−04 femtomoles cell^−1
Human HepG2 cells
  % Viability: 59.32%

## COc1ccc(/C=N/c2ccc(S(N)(=O)=O)cc2)c(OC)c1 [ST016442]
[2]
  Log-reduction Colony Forming Units (ml^−1): 3.88 log
  MEC: 2 µg/mL
[3]
  Minocylcine Per Cell (femtomoles cell^−1): 1.96E−04 femtomoles cell^−1
Human HepG2 cells
  % Viability: 53.43%

## COc1ccc(OC)c(/C=N/c2ccc(S(N)(=O)=O)cc2)c1 [ST016443]
[2]
  Log-reduction Colony Forming Units (ml^−1): 2.00 log
  MEC: 2 µg/mL
[3]
  Minocylcine Per Cell (femtomoles cell^−1): 4.4E−04 femtomoles cell^−1
Human HepG2 cells
  % Viability: 57.49%

## CCc1ccc(/C=N/c2ccc(S(N)(=O)=O)cc2)cc1 [ST016444]
[2]
  Log-reduction Colony Forming Units (ml^−1): 4.86 log
  MEC: 16 µg/mL
[3]
  Minocylcine Per Cell (femtomoles cell^−1): 2.02E−05 femtomoles cell^−1
Human HepG2 cells
  % Viability: 53.92%

## COc1ccc(O)c(/C=N/N=C/c2cc(OC)ccc2O)c1 [ST020959]
[2]
  Log-reduction Colony Forming Units (ml^−1): 6.90 log
  MEC: 2 µg/mL
[3]
  Minocylcine Per Cell (femtomoles cell^−1): 1.27E−04 femtomoles cell^−1
Human HepG2 cells; human, 48 h, 4 ×MEC
  % Viability: 51.04%

## Cc1nnc(SCC2=C(C(=O)[O-])N3C(=O)[C@@H](NC(=O)Cn4cnnn4)[C@H]3SC2)s1.[Na+] [ST024775]
[2]
  Log-reduction Colony Forming Units (ml^−1): 4.84 log
  MEC: 16 µg/mL
[3]
  Minocylcine Per Cell (femtomoles cell^−1): 1.72E−05 femtomoles cell^−1
Human HepG2 cells; HepG2 cellular survival at 4×MEC
  % Viability: 41.62%

## CCOC(=O)/C=C/C(=O)Nc1ccc(S(=O)(=O)Nc2nccs2)cc1 [ST026450]
[1]
  Potentiate Ciprofloxacin A. baumannii: No
[2]
  Log-reduction Colony Forming Units (ml^−1): 5.37 log
  MEC: 32 µg/mL
[3]
  Minocylcine Per Cell (femtomoles cell^−1): 2.35E−06 femtomoles cell^−1
Human HepG2 cells; human, 48 h, 4 ×MEC
  % Viability: 100%

## CCOC(=O)/C=C/C(=O)Nc1ccc(S(N)(=O)=O)cc1 [ST026465]
[1]
  Potentiate Ciprofloxacin A. baumannii: No
[2]
  Log-reduction Colony Forming Units (ml^−1): 6.36 log
  MEC: 32 µg/mL
[3]
  Minocylcine Per Cell (femtomoles cell^−1): 3.82E−04 femtomoles cell^−1
Human HepG2 cells; human, 48 h, 4 ×MEC
  % Viability: 100%

## O=C(c1ccc(Cl)cc1Cl)n1cc([N+](=O)[O-])cn1 [ST033231]
[2]
  Log-reduction Colony Forming Units (ml^−1): 1.91 log
  MEC: 32 µg/mL
[3]
  Minocylcine Per Cell (femtomoles cell^−1): 3.42E−06 femtomoles cell^−1
Human HepG2 cells
  % Viability: 70.87%

## COc1cc(/C=N/NC(=O)c2sc3ccccc3c2Cl)cc(OC)c1OC [ST033346]
[2]
  Log-reduction Colony Forming Units (ml^−1): 2.00 log
  MEC: 2 µg/mL
[3]
  Minocylcine Per Cell (femtomoles cell^−1): 3.615E−07 femtomoles cell^−1
Human HepG2 cells
  % Viability: 74.67%

## CC(=O)NS(=O)(=O)c1ccc(N)cc1 [ST040724]
[1]
  Potentiate Ciprofloxacin A. baumannii: No
[2]
  Log-reduction Colony Forming Units (ml^−1): 4.08 log
  MEC: 64 µg/mL
[3]
  Minocylcine Per Cell (femtomoles cell^−1): 1.45E−04 femtomoles cell^−1

## CN(C)c1ccc(O)c2c1C[C@H]1C[C@H]3[C@H](N(C)C)C(O)=C(C(N)=O)C(=O)[C@@]3(O)C(O)=C1C2=O [minocycline, reference compound]
[3]; growth in serum (efflux active conditions), minocycline without efflux inhibitor
  cellular minocycline concentration: 1.58×10^−10 femtomoles per bacterial cell
Human HepG2 cells; minocycline tested alone at 2 μg ml^−1
  HepG2 survival: 77.9%
